Like-named read-outs stand apart in the source and are kept apart here.
What was measured:
[1] = target: WRN helicase (Homo sapiens (Human), UniProt Q14191); test: In vitro enzymatic activity assay on WRN helicase (DNA dependent ATPase assay, ADP-Glo); type: biochemical; settings: geometric means of at least 2 determinations; read-out: WRN ATPase Activity (IC50)
Procedure, shortened: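 The WRN helicase core (aa N517-P1238), 10 nM, hydrolysed 300 µM ATP in the presence of 0.2 nM FLAP26 DNA (Tris pH 7.5, 2 mM MgCl2, 50 mM NaCl) for 30 min at room temperature. ADP formed was quantified by ADP-Glo luminescence.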

[2] = system: SW48 cells; test: Proliferation assay SW48 (CellTiterGlo, 96 hours)
[3] = system: DLD1-WRN-KO cells; test: Proliferation assay DLD1-WRN-KO (CellTiterGlo, 96 hours; off-target effects); settings: read-out: Proliferation Assay DLD1-WRN-KO (GI50)
Protocol: The WRN-knockdown insensitive colon carcinoma cell line DLD-1 (RRID: CVCL_0248) was obtained from the Korean Cell Line Bank (KCLB), and used to generate a derivative in which the endogenous WRN gene copies were knocked out by CRISPR-mediated editing using standard CRISPR methods. The resulting cell line, DLD1-WRN—KO, was used to assess potential off-target compound effects.
All cells were maintained at 37° C. in a humidified 5% CO2 incubator.
For data analysis, the assay background signal that was determined in wells containing medium, but no cells, was subtracted from all other data points prior to further calculations. The extent of growth inhibition and potential cell kill was assessed by comparing the ATP levels (measured using CellTiterGlo, Promega) in compound-treated cells with those present at the time of compound addition. […] 100%, 0% and −100% signify absence of growth inhibition, growth stasis, and complete cell kill, respectively. Compound concentrations leading to half-maximal growth inhibition (G150) and residual cell viability at the highest tested compound concentration (Data (cmax), expressed in percent) were routinely calculated. Data analysis can also be carried out using commercially available software designed to derive IC50 values using 4-parameter fits (e.g. GraphPad Prism, XL fit). The reported GI50 values are the geometrical means of at least 2 independent replicates.

[4] = Homo sapiens, SW48, read-out: Proliferation Assay SW48 (GI50)

Chain of WRN helicase (Q14191 517-1238): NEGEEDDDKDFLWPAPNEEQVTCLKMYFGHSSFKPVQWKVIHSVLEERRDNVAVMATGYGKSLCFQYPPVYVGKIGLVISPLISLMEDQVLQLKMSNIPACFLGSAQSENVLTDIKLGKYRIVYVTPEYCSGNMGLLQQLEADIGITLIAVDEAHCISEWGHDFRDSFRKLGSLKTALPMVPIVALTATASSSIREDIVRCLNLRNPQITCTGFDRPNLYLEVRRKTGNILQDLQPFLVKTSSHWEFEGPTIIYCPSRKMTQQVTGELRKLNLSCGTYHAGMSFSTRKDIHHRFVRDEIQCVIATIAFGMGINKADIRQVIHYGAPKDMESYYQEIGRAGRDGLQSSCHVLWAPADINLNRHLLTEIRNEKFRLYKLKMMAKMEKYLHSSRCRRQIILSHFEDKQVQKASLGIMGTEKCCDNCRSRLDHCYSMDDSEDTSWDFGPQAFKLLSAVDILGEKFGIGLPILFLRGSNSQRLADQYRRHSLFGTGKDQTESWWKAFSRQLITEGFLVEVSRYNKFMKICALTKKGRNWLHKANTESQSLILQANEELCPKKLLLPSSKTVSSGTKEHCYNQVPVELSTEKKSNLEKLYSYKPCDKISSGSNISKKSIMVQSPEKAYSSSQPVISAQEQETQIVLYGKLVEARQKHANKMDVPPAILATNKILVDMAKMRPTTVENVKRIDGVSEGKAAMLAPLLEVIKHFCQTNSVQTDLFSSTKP

| SMILES | IC50 [1] [µM] | GI50 [2, 4] [µM] | GI50 ([3]; Homo sapiens) [µM] | GI50 ([2]; read-out: Proliferation Assay SW48 (GI50), SW48 cell line, geometric means of at least 2 determinations) [µM] | GI50 ([3]; DLD1-WRN-KO cell line, geometric means of at least 2 determinations) [µM] |
| --- | --- | --- | --- | --- | --- |
| CCc1c(N2CCN(C(=O)c3ncccc3O)CC2)c(=O)n2nc(C3=CCOCC3)nc2n1CC(=O)Nc1ccc(C(F)(F)F)cc1 [Example 72, 2-(2-(3,6-dihydro-2H-pyran-4-yl)-5-ethyl-6-(4-(3-hydroxypicolinoyl)piperazin-1-yl)-7-oxo-[1,2,4]triazolo[1,5-a]pyrimidin-4(7H)-yl)-N-(4-(trifluoromethyl)phenyl)acetamide] | 0.05 | 0.05 | > 10 |  |  |
| Cc1c(N2CCN(C(=O)c3ncccc3O)[C@H](C)C2)c(=O)n2nc(C3=CCOCC3)nc2n1CC(=O)Nc1ccc(C(F)(F)F)cc1 [Example 89, (R)-2-(2-(3,6-dihydro-2H-pyran-4-yl)-6-(4-(3-hydroxypicolinoyl)-3-methylpiperazin-1-yl)-5-methyl-7-oxo-[1,2,4]triazolo[1,5-a]pyrimidin-4(7H)-yl)-N-(4-(trifluoromethyl)phenyl)acetamide] | 0.04 | 0.17 | > 10 |  |  |
| CCc1c(N2CCN(C(=O)c3ncccc3O)CC2)c(=O)n2nc(C3=CCOCC3)nc2n1CC(=O)Nc1cnc(C(F)(F)F)cc1C [Example 34, 2-(2-(3,6-dihydro-2H-pyran-4-yl)-5-ethyl-6-(4-(3-hydroxypicolinoyl)piperazin-1-yl)-7-oxo-[1,2,4]triazolo[1,5-a]pyrimidin-4(7H)-yl)-N-(4-methyl-6-(trifluoromethyl)pyridin-3-yl)acetamide] | 0.25 | 0.28 | > 10 |  |  |
| CCc1c(N2CCN(C(=O)c3nccc(F)c3O)CC2)c(=O)n2nc(N3CCOCC3)nc2n1CC(=O)Nc1ccc(C(F)(F)F)cc1Cl [Example 3, N-(2-chloro-4-(trifluoromethyl)phenyl)-2-(5-ethyl-6-(4-(4-fluoro-3-hydroxypicolinoyl)piperazin-1-yl)-2-morpholino-7-oxo-[1,2,4]triazolo[1,5-a]pyrimidin-4(7H)-yl)acetamide] | 0.07 | 0.09 | > 10 |  |  |
| CCc1c(N2CCN(C(=O)c3nc(C)cc(F)c3O)CC2)c(=O)n2nc(C3=CCOCC3)nc2n1CC(=O)Nc1ccc(C(F)(F)F)cc1Cl [Example 41, N-(2-chloro-4-(trifluoromethyl)phenyl)-2-(2-(3,6-dihydro-2H-pyran-4-yl)-5-ethyl-6-(4-(4-fluoro-3-hydroxy-6-methylpicolinoyl)piperazin-1-yl)-7-oxo-[1,2,4]triazolo[1,5-a]pyrimidin-4(7H)-yl)acetamide] | 0.04 | 0.04 | > 10 |  |  |
| CCc1c(N2CCN(C(=O)c3ncccc3O)CC2)c(=O)n2nc(C3=CCOCC3)nc2n1CC(=O)Nc1ccc(Cl)cc1Cl [Example 101, N-(2,4-dichlorophenyl)-2-(2-(3,6-dihydro-2H-pyran-4-yl)-5-ethyl-6-(4-(3-hydroxypicolinoyl)piperazin-1-yl)-7-oxo-[1,2,4]triazolo[1,5-a]pyrimidin-4(7H)-yl)acetamide] | 0.1 | 0.21 | > 10 |  |  |
| CCc1c(N2CCN(C(=O)c3ncccc3O)CC2)c(=O)n2nc(C3=CCOCC3)nc2n1CC(=O)Nc1cc(C(F)(F)F)c(Cl)cc1C [Example 103, N-(4-chloro-2-methyl-5-(trifluoromethyl)phenyl)-2-(2-(3,6-dihydro-2H-pyran-4-yl)-5-ethyl-6-(4-(3-hydroxypicolinoyl)piperazin-1-yl)-7-oxo-[1,2,4]triazolo[1,5-a]pyrimidin-4(7H)-yl)acetamide] | 0.1 | 0.25 | > 10 |  |  |
| CCc1c(N2CCN(C(=O)c3nccc(Cl)c3O)CC2)c(=O)n2nc(C3=CCOCC3)nc2n1CC(=O)Nc1ccc(C(F)(F)F)nc1C [Example 36, 2-(6-(4-(4-chloro-3-hydroxypicolinoyl)piperazin-1-yl)-2-(3,6-dihydro-2H-pyran-4-yl)-5-ethyl-7-oxo-[1,2,4]triazolo[1,5-a]pyrimidin-4(7H)-yl)-N-(2-methyl-6-(trifluoromethyl)pyridin-3-yl)acetamide] | 0.93 | 1.78 | > 10 |  |  |
| CCc1c(N2CCN(C(=O)c3ncccc3O)CC2)c(=O)n2nc(C3=CCCCO3)nc2n1CC(=O)Nc1ccc(C(F)(F)F)cc1 [Example 84, 2-(2-(3,4-dihydro-2H-pyran-6-yl)-5-ethyl-6-(4-(3-hydroxypicolinoyl)piperazin-1-yl)-7-oxo-[1,2,4]triazolo[1,5-a]pyrimidin-4(7H)-yl)-N-(4-(trifluoromethyl)phenyl)acetamide] | 0.05 | 0.13 | > 10 |  |  |
| CCc1c(N2CCN(C(=O)c3ncccc3O)CC2)c(=O)n2nc(C3=CCOCC3)nc2n1CC(=O)Nc1cnc(C(F)(F)F)cc1Cl [Example 33, N-(4-chloro-6-(trifluoromethyl)pyridin-3-yl)-2-(2-(3,6-dihydro-2H-pyran-4-yl)-5-ethyl-6-(4-(3-hydroxypicolinoyl)piperazin-1-yl)-7-oxo-[1,2,4]triazolo[1,5-a]pyrimidin-4(7H)-yl)acetamide] | 0.26 | 0.22 | > 10 |  |  |
| CCc1c(N2CCN(C(=O)c3ncnc(C)c3O)CC2)c(=O)n2nc(C3=CCOCC3)nc2n1CC(=O)Nc1ccc(C(F)(F)F)cc1Br [Example 108, N-(2-bromo-4-(trifluoromethyl)phenyl)-2-(2-(3,6-dihydro-2H-pyran-4-yl)-5-ethyl-6-(4-(5-hydroxy-6-methylpyrimidine-4-carbonyl)piperazin-1-yl)-7-oxo-[1,2,4]triazolo[1,5-a]pyrimidin-4(7H)-yl)acetamide] | 0.08 | 0.09 | > 10 |  |  |
| CCc1c(N2CCN(C(=O)c3ncccc3O)CC2)c(=O)n2nc(C3=CC[C@H](OC)CC3)nc2n1CC(=O)Nc1ccc(C(F)(F)F)cc1C (single isomer, unassigned) [Example 80a, ((R)-2-(5-ethyl-6-(4-(3-hydroxypicolinoyl)piperazin-1-yl)-2-(4-methoxycyclohex-1-en-1-yl)-7-oxo-[1,2,4]triazolo[1,5-a]pyrimidin-4(7H)-yl)-N-(2-methyl-4-(trifluoromethyl)phenyl)acetamide) or ((S)-2-(5-ethyl-6-(4-(3-hydroxypicolinoyl)piperazin-1-yl)-2-(4-methoxycyclohex-1-en-1-yl)-7-oxo-[1,2,4]triazolo[1,5-a]pyrimidin-4(7H)-yl)-N-(2-methyl-4-(trifluoromethyl)phenyl)acetamide)] | 0.07 |  |  | 0.07 | > 10 |
| O=C(Cn1c(C2CC2)c(N2CCN(C(=O)c3ncccc3O)CC2)c(=O)n2nc(C3=CCOCC3)nc12)Nc1ccc(C(F)(F)F)cc1 [Example 134, 2-(5-cyclopropyl-2-(3,6-dihydro-2H-pyran-4-yl)-6-(4-(3-hydroxypicolinoyl)piperazin-1-yl)-7-oxo-[1,2,4]triazolo[1,5-a]pyrimidin-4(7H)-yl)-N-(4-(trifluoromethyl)phenyl)acetamide] | 0.06 | 0.21 | > 10 |  |  |
| CCc1c(N2CCN(C(=O)c3nc(N4CCN(C)CC4)ncc3O)CC2)c(=O)n2nc(C3=CCOCC3)nc2n1CC(=O)Nc1ccc(C(F)(F)F)cc1C [Example 128, 2-(2-(3,6-dihydro-2H-pyran-4-yl)-5-ethyl-6-(4-(5-hydroxy-2-(4-methylpiperazin-1-yl)pyrimidine-4-carbonyl)piperazin-1-yl)-7-oxo-[1,2,4]triazolo[1,5-a]pyrimidin-4(7H)-yl)-N-(2-methyl-4-(trifluoromethyl)phenyl)acetamide] | 0.08 | 0.69 | > 10 |  |  |
| CCc1c(N2CCN(C(=O)c3nc(C)cc(F)c3O)CC2)c(=O)n2nc(C3=CCOCC3)nc2n1CC(=O)Nc1ccc(C(F)(F)F)cc1C [Example 62, 2-(2-(3,6-dihydro-2H-pyran-4-yl)-5-ethyl-6-(4-(4-fluoro-3-hydroxy-6-methylpicolinoyl)piperazin-1-yl)-7-oxo-[1,2,4]triazolo[1,5-a]pyrimidin-4(7H)-yl)-N-(2-methyl-4-(trifluoromethyl)phenyl)acetamide] | 0.05 | 0.05 | > 10 |  |  |
| CCc1c(N2CCN(C(=O)c3ncccc3O)CC2)c(=O)n2nc(C3=CCCCO3)nc2n1CC(=O)Nc1ccc(C(F)(F)F)nc1C [Example 55, 2-(2-(3,4-dihydro-2H-pyran-6-yl)-5-ethyl-6-(4-(3-hydroxypicolinoyl)piperazin-1-yl)-7-oxo-[1,2,4]triazolo[1,5-a]pyrimidin-4(7H)-yl)-N-(2-methyl-6-(trifluoromethyl)pyridin-3-yl)acetamide] | 0.2 | 0.1 | > 10 |  |  |
| Cc1ccnc(C(=O)N2CCN(c3c(C)n(CC(=O)Nc4ccc(C(F)(F)F)cc4)c4nc(C5=CCOCC5)nn4c3=O)CC2)c1O [Example 90, 2-(2-(3,6-dihydro-2H-pyran-4-yl)-6-(4-(3-hydroxy-4-methylpicolinoyl)piperazin-1-yl)-5-methyl-7-oxo-[1,2,4]triazolo[1,5-a]pyrimidin-4(7H)-yl)-N-(4-(trifluoromethyl)phenyl)acetamide] | 0.13 | 0.3 | > 10 |  |  |
| CCc1c(N2CCN(C(=O)c3ncccc3O)CC2)c(=O)n2nc(N3CCOCC3)nc2n1CC(=O)Nc1ccc(C(F)(F)F)cc1C [Example 8, 2-(5-ethyl-6-(4-(3-hydroxypicolinoyl)piperazin-1-yl)-2-morpholino-7-oxo-[1,2,4]triazolo[1,5-a]pyrimidin-4(7H)-yl)-N-(2-methyl-4-(trifluoromethyl)phenyl)acetamide] | 0.08 | 0.21 | > 10 |  |  |

Source: US11878973B2, “Bicyclic compounds and their uses” (NOVARTIS AG, priority 2021, dated 2024)
